Entries after “also recorded” stand apart in the source; their conditions may differ.
Assays:
[1] = tested on: IL-8; assay: Ray Biotech cytokine array on spent medium of MDA231 cells, validated by ELISA: IL-8; assay type: cell-based; settings: spent medium of MDA231 cells after exposure to ALM201
Text: (§1) FIGS. 7A and 7B illustrate the level of secretion of leptin, IL8 and TIMP Secretion after treatment with FKBP-L's therapeutic peptide, ALM201—A Ray Biotech cytokine array was used to measure cytokines in the spent medium of MDA231 cells after exposure to ALM201. Blots were then quantitated by densitometric analysis using Ray Biotech software.
(§2) A Ray Biotech cytokine array was used to measure cytokines in the spent medium of MDA231 cells after exposure to ALM201. Blots were then quantitated by densitometric analysis using Ray Biotech software. IL8 and TIMP1 levels were then validated by ELISA in two or three independent repeats. A reduction in these cytokines would reduce the obesity phenotype.

[2] = High fat diet weight gain study in Fkbpl+/- and Fkbpl+/+ mice, ALM201 vs PBS; assay type: in vivo; settings: ALM201 0.3 mg/kg subcutaneously 5 days per week
Text: (§3) For the high fat diet study, 40 age and sex matched mice were chosen with an age range of 6-10 weeks at the experimental start date. Mice were randomised into four groups: PBS Fkbpl^+/−, PBS Fkbpl^+/+, ALM201 Fkbpl^+/− and ALM201 Fkbpl^+/+. Power calculations were utilised to predict the number of mice needed to show statistical significance. Taking group 1 mean weight to be 25 g and group 2 mean weight to be 45 g, with a standard deviation of 13 gives a sample size of eight mice per group when powered to 0.8, with α=0.05. 10 mice per treatment group were used. All mice were weighed at experimental start date, biweekly for the first three weeks to ensure health, and weekly thereafter. Mice were solely fed a high fat diet comprising 60% fat (Cat no. F3282, Dates and, USA). Food provided was weighed biweekly for three weeks, then weekly, to ensure equal food provisions between boxes, with an allowance of 5 g per mouse per day assumed. ALM201 was reconstituted in PBS, stored at −20° C., and injected subcutaneously at a dose of 0.3 mg/kg, 5 days per week.

[3] = Oral Glucose Tolerance Test (OGTT) in high fat diet fed mice given ALM201; assay type: in vivo
Description: An OGTT was performed by fasting the mice for 4 h, taking baseline blood glucose, administering 40% D-glucose, and recording two further blood glucose readings at 30 and 60 min.
as §3

[4] = tested on: SIRT1; assay: SIRT1 protein levels following ALM201 treatment (western blot); assay type: cell-based; settings: FIG. 6D
Description: For assessing protein levels: Cell lysates were prepared in RIPA buffer from MDA-MB-231, A3, MCF-7 and D2 cells and subjected to Western Blotting. The membrane was then probed with a 1:1000 dilution of rabbit FKBP-L IgG polyclonal primary antibody (Proteintech UK, cat: 10060-1-AP), 1:1000 rabbit SIRT1 IgG monoclonal primary antibody (Abcam, UK cat: ab32441) in 3% blocking solution overnight on a rocker at 4° C. The membrane was washed with PBS-Tween and then PBS for 5 min each, and was probed for an hour with a 1:5000 dilution of ECL anti rabbit IgG HRP linked whole secondary antibody (GE Healthcare UK Ltd.) Membranes were washed and developed as in section 2.2.2.11.3. Membranes were then stripped with Restore™ Western Blot Stripping Buffer (Thermo Scientific) for 10 min, washed, re-probed with rabbit GAPDH primary antibody (Sigma-Aldrich), and a 1:5000 dilution of ECL anti rabbit IgG HRP linked whole secondary antibody (GE Healthcare UK Ltd.) and developed as above. SIRT1 was identified as a band around 110 kDa, FKBP-L at 42 kDa.

[5] = tested on: TIMP1; assay: Ray Biotech cytokine array on spent medium of MDA231 cells, validated by ELISA: TIMP1; assay type: cell-based; settings: spent medium of MDA231 cells after exposure to ALM201
Text: as §1, §2

[6] = tested on: leptin; assay: Ray Biotech cytokine array on spent medium of MDA231 cells: leptin; assay type: cell-based; settings: spent medium of MDA231 cells after exposure to ALM201
Text: as §1, §2

[7] = tested on: NFkB; assay: LPS-induced NFkB phosphorylation in THP-1 monocytes (western blot); assay type: cell-based; settings: 100 ng/ml LPS, lysates 6 hour after treatment
Description: FIG. 12 illustrates the FKBP-L peptide, AD-01 (SEQ ID NO: 10), abrogates LPS-induced activation of NFkB in THP-1 monocytes—Cells were stimulated with 100 ng of LPS which results in activation of NFkB phosphorylation.
(§4) THP1 cells were treated with 100 ng/ml LPS and cell lysates harvested and subjected to western blotting as described in Example 4, using primary antibody against pSER36 NFkB (at a 1:1000 dilution) and a 1:5000 dilution of ECL anti rabbit IgG HRP linked whole secondary antibody (GE Healthcare UK Ltd.). To measure IL-1β levels THP1 cells were treated with 1000 ng/ml LPS±AD-01 and conditioned cell culture medium was collected 24 h later and assessed using an IL-1β ELISA.

[8] = tested on: IL-1β; assay: LPS-induced IL-1β secretion in THP-1 monocytes (ELISA); assay type: cell-based; settings: 1000 ng/ml LPS, conditioned medium 24 h later
Description: FIG. 13 illustrates the FKBP-L peptide, AD-01, abrogates LPS-induced activation of IL-1β in THP-1 monocytes—Cells were stimulated with 1000 ng of LPS.
as §4

Substance	secreted IL-8 levels [1]	weight gain ([2]; Fkbpl+/- mice, 0.3 mg/kg)	weight gain ([2]; wild-type (Fkbpl+/+) mice)	blood glucose / glucose intolerance (OGTT) ([3]; Fkbpl+/- mice given ALM201 vs Fkbpl+/- mice given PBS, readings at 30 and 60 min after 40% glucose)	difference in blood glucose levels between Fkbpl+/- and Fkbpl+/+ mice (OGTT) ([3]; both genotypes administered ALM201)	SIRT1 protein levels [4]	secreted TIMP1 levels [5]	secreted leptin levels [6]	LPS-induced activation of NFkB (phosphorylation) [7]	LPS-induced IL-1β secretion [8]
NH2-IRQQPRDPPTETLELEVSPDPAS-OH (H-IRQQPRDPPTETLELEVSPDPAS-OH) [ALM201]	reduce	significantly reduced; also recorded: normalises the mouse weight gain; also recorded: reduces and normalises weight gain	partially prevented weight gain	significantly reduced; also recorded: significantly lower blood glucose readings	no significant difference	increased SIRT1 levels	reduce	reduce	–	–
NH2-QIRQQPRDPPTETLELEVSPDPAS-OH (H-QIRQQPRDPPTETLELEVSPDPAS-OH) [AD-01]	–	–	–	–	–	–	–	–	inhibit; also recorded: abrogated that increase	dramatic reduction; also recorded: significantly abrogated
